Patent US5100907A, “Hydantoin esters” (Lonza, Inc., priority 1990, dated 1992)

Columns and labels:
Staphylococcus species a = assay: Preservative challenge test against Staphylococcus species a; assay type: cell-based; details: end of 14 day period
Experimental: Microbiological challenge tests were also conducted with the lauric and oleic esters (I), representing molecules having C12 and C18 aliphatic fatty acid chain length moieties, respectively.
These preservative challenge tests were used to determine the biocidal performance of these two esters (I) in aqueous solution and dispersion formulations inoculated with a given one of two test organisms, previously isolated from a contaminated calcium carbonate (CaCO3) dispersion, i.e. gram-positive bacteria, designated Staphylococcus species a and Staphylococcus species b, as compared to three known biocides or preservatives, designated as DANTOGARD (trademark), Tektamer 38 (1,2-dibromo-2,4-dicyanobutane) and Nuodex PMA-18.
The solution formulation was represented by the inclusion of the test sample as preservative system in deionized water, and the dispersion formulation was represented by the inclusion of the test sample as preservative system in a CaCO3 aqueous dispersion (identified as Hydrocarb 60), the latter typifying a dispersed pigment medium, e.g. as used in a paint or other industrial dispersion or slurry. The antimicrobial activity of the test samples was evaluated at individually selective concentrations.
All these liquid samples were stored at room temperature until the start of the tests. The test organisms were maintained or nutrient agar at 4° C. and subcultured in nutrient broth (Difco), and a 24 hour culture incubated at 35° C. was used for the testing over a challenge test time period of 14 days.
The test formulations were prepared per a standardized procedure, by placing 20 ml aliquots of the stored sample into sterile test tubes, and then adding 0.1 ml of a standardized 10^6 suspension of a 24 hour culture in nutrient broth. Plate counts were taken immediately to determine the initial level of the microbial population, and the containers were incubated at 20°-25° C. Plate counts were retaken at 1, 3, 7 and 14 days, with the final reductions being calculated from the 14 days results.

[1] = Solubilities of esters in typical solvents / appearance of samples in water; assay type: physicochemical; details: 25° C.
Emulsion stability tests = assay type: physicochemical
Experimental: Emulsion stability tests were performed on the esters (I), and for comparison on the precursor esters (Ia), to determine the extent to which each stabilized a standardized solution of water and an oil, using a common procedure consisting of homogenizing a mixture containing the test ester (2%), myristyl propionate (7%), and water (91%). While two emulsifiers are normally used to prepare a cosmetic formulation, e.g. one with a high HLB and the other with a low HLB, the test method herein using only one emulsifier, i.e. the test ester, is fully indicative of the emulsifying attributes of these esters.
The tests were performed with emulsions (500 g), prepared by combining the test ester (10.0 g), myristyl propionate (35 g), and distilled water (455 g) in a container and homogenizing the contents for one minute, via a Kika-Werk Ultra-Turrax S D-45 homogenizer. The emulsions were poured into a one pound flint jar, capped, and periodically examined over a 55 day period.

[2] = Physical properties of methylolated MHEDMH esters (I): viscosity; assay type: physicochemical; details: at 25° C.
Pseudomonas aeruginosa = assay: Antimicrobial study against Pseudomonas aeruginosa (gram-negative bacteria); assay type: cell-based; details: methylolated C8/10 10,800 ppm, methylolated lauric 11,400 ppm, DMDMH 3,000 ppm, others 14,700 ppm
Experimental: (§1) The antimicrobial properties of typical esters (I) and (Ia) were tested by minimum inhibitory concentration (MIC) tests, along with certain known substances, against […] strains of organisms: a mold, Aspergillus niger; a gram-positive bacteria, Staphylococcus aureus; and two gram-negative bacteria, Escherichia coli and Pseudomonas aeruginosa. […] These tests were used to determine any effect on biocidal activity of the varying chain length of the ester.
(§2) The known substances, on which identical tests were also performed, included the biocide, dimethyloldimethylhydantoin or DMDMH (iv), and a series of three surfactants, i.e., the three common emulsifiers, sodium lauryl sulfate (SLS); ethylene glycol distearate (EGDS), in the form of the commercial product PEGOSPERSE 50 DS (Lonza Inc.); and polyoxyethylene 20 sorbitan monoleate (POE 20 SMO), in the form of the commercial product GLYCOSPERSE 0 20 (Lonza Inc.).
(§3) The tests entailed contaminating a preexisting micro-colony with a known quantity (ppm, concentration) of test material. Each colony was then examined periodically over a one week period. […] A test was deemed non-efficacious when there was no decrease in colony size. In an effort to avoid any possible solvent effect, the micro-study was conducted in a totally aqueous solvent system without use of any other solvent.

[3] = Surface tension tests (cmc, Gibbs' Free Energy of Micellation); assay type: physicochemical
Experimental: Surface tension tests were conducted as to the relationship between the fatty acid aliphatic chain length, i.e. number of carbon atoms, in the esters (I), and their performance as surfactants. The length of the hydrophobic chain of a molecule is considered the major contributing factor to the critical micelle concentration (cmc) value of a surfactant. This value is obtained from surface tension measurement data. The lower the cmc, the more readily the material will form micelles.
The Gibbs' Free Energy of Micellation (ΔG°cmc) and the ΔG°cmc per --CH2 -- can be determined if the cmc is known.
The ΔG°cmc is a calculated value obtained by Equation 1.
ΔG°cmc =2.303RT(log cmc-log[water]) (Eq. 1)
The ΔG°cmc per --CH2 -- value is obtained from the slope of the straight line curve formed from a plot of ΔG°cmc versus the number of carbon atoms in the lipophilic chain.
The cmc values were based on surface tension tests conducted with a tensiometer (Cenco-DuNoug Precision Model #70535, direct reading model) to determine the upward surface tension at the liquid-air surface of the test ester/water solution. The methods used to calibrate the tensiometer, calculate the "correction factor" (used to correct for the difference between the apparent and true surface tension), and collect data, were conducted as described in the manual for the instrument. Sodium lauryl sulfate (SLS) and distilled water were used as reference samples.
On completing data collection, plots of the surface tension (dynes) versus -log of the concentration (mols/liter) were prepared, using only the "corrected" surface tension value, obtained by applying the noted "correction factor" in each case. The […] was found by multiplying the "apparent" surface tension by a calculated correction factor.
The critical micelle concentration (cmc) for each sample was determined by locating the point in the curve where the surface tension first begins to level off, per a known procedure.

Aspergillus niger = assay: Antimicrobial study against Aspergillus niger (mold); assay type: cell-based; details: methylolated C8/10 10,800 ppm, methylolated lauric 11,400 ppm, DMDMH 3,000 ppm, others 14,700 ppm
Experimental: as §1, §2, §3

Escherichia coli = assay: Antimicrobial study against Escherichia coli (gram-negative bacteria); assay type: cell-based; details: methylolated C8/10 10,800 ppm, methylolated lauric 11,400 ppm, DMDMH 3,000 ppm, others 14,700 ppm
Experimental: as §1, §2, §3

[4] = among esters (I) examined, Table 6

| Solubility in isopropyl alcohol [1] | Solubility in mineral oil [1] | SMILES | effectiveness as preservative (Staphylococcus species a; water) | emulsion quality, decreasing order of rank (Emulsion stability tests) | Colony Count (Pseudomonas aeruginosa; Day 0) | Colony Count (Pseudomonas aeruginosa; Day 1) | Colony Count (Pseudomonas aeruginosa; Day 2) | Colony Count (Pseudomonas aeruginosa; Day 3) | Colony Count (Pseudomonas aeruginosa; Day 7) | surface active properties [3] | Colony Count (Aspergillus niger; Day 0) | Colony Count (Aspergillus niger; Day 1) | Colony Count (Aspergillus niger; Day 2) | Colony Count (Aspergillus niger; Day 3) | Colony Count (Aspergillus niger; Day 7) | Colony Count (Escherichia coli; Day 0) | Colony Count (Escherichia coli; Day 1) | Colony Count (Escherichia coli; Day 2) | Colony Count (Escherichia coli; Day 3) | Colony Count (Escherichia coli; Day 7) | other results |
| --- | --- | --- | --- | --- | --- | --- | --- | --- | --- | --- | --- | --- | --- | --- | --- | --- | --- | --- | --- | --- | --- |
| S (>10 g/100 g Solvent) | S (>10 g/100 g Solvent) | CCCCCCCC/C=C\CCCCCCCC(=O)OCCN1C(=O)N(CO)C(=O)C1(C)C [Methylolated Oleic Ester, 2-(3-hydroxymethyl-5,5-dimethyl-1,3-diazacyclopentane-2,4-dion-1-yl)-ethylester of oleic acid] | effective as preservatives in water | cocoate, laurate>oleate,isostearate>stearate>C8/10 ester>acetate | TNC | < 0.01 × 1,000 | < 0.01 × 1,000 | < 0.01 × 1,000 | < 0.01 × 1,000 | particularly favorable surface active properties | 2,000 × 1,000 | 0.5 × 1,000 | < 0.01 × 1,000 | < 0.01 × 1,000 | < 0.01 × 1,000 | 4,000 × 1,000 | < 0.01 × 1,000 | < 0.01 × 1,000 | < 0.01 × 1,000 | < 0.01 × 1,000 | effectiveness as preservative (Staphylococcus species a; calcium carbonate aqueous dispersions): effective as a preservative in calcium carbonate aqueous dispersions; Viscosity [2]: 501 cts; cmc, relative rank [3, 4]: the lowest cmc values; ΔG°cmc, relative rank [3, 4]: the lowest ΔG°cmc values; ΔG°cmc (Gibbs' Free Energy of Micellation) ([3]; calculated from cmc by Eq. 1, T=298° K.): -6.962 kcal/mol; cmc (critical micelle concentration) ([3]; ester/water solution): 4.0 × 10^-4 mol dm^-3 |
| S (>10 g/100 g Solvent) | S (>10 g/100 g Solvent) | CCCCCCCCCCCC(=O)OCCN1C(=O)N(CO)C(=O)C1(C)C [Methylolated Lauric Ester, 2-(3-hydroxymethyl-5,5-dimethyl-1,3-diazacyclopentane-2,4-dion-1-yl)-ethylester of lauric acid] | effective as preservatives in water | cocoate, laurate>oleate,isostearate>stearate>C8/10 ester>acetate | TNC | < 0.01 × 1,000 | < 0.01 × 1,000 | < 0.01 × 1,000 | < 0.01 × 1,000 | particularly favorable surface active properties | 400 × 1,000 | 2 × 1,000 | < 0.01 × 1,000 | < 0.01 × 1,000 | < 0.01 × 1,000 | TNC | TNC | < 0.01 × 1,000 | < 0.01 × 1,000 | < 0.01 × 1,000 | ability to stabilize emulsions (Emulsion stability tests): the best emulsifiers tested; duration of stabilized emulsions (Emulsion stability tests): more than 22 days |
